{
  "source": "the supplement of paper PMC10307832",
  "experiment_in_all_cases": "relative viability (nuclei count vs DMSO), 5 days (fraction); higher = more cells survive",
  "key": {"AT-7519 + Crizotinib": {"compound": "O=C(NC1CCNCC1)c1n[nH]cc1NC(=O)c1c(Cl)cccc1Cl [AT-7519] + C[C@@H](Oc1cc(-c2cnn(C3CCNCC3)c2)cnc1N)c1c(Cl)ccc(F)c1Cl [Crizotinib] (partner 1 µM)", "method_in_brief": "(§1)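 Lung cancer cell lines, seeded in 1536-well plates, were treated the following day by pin tool with a single drug or with five library-drug doses (not always all listed) in √10 steps on top of a fixed anchor-drug dose. Cells were fixed and nuclei stained in one step after 5 days, and nuclei were counted. Relative viability is the nuclei count for treated wells divided by that for vehicle wells, reported as medians of duplicate plates.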"}, "AT-7519 + Bortezomib": {"compound": "O=C(NC1CCNCC1)c1n[nH]cc1NC(=O)c1c(Cl)cccc1Cl [AT-7519] + CC(C)C[C@H](NC(=O)[C@H](Cc1ccccc1)NC(=O)c1cnccn1)B(O)O [Bortezomib] (partner 0.002 µM)", "method_in_brief": "as §1"}, "[1]": {"compound": "C1=CC2=C(C=C(C(=C2N=C1)O)N=NC3=CC4=C(C=C3)C=C(C=C4)S(=O)(=O)O)S(=O)(=O)O + Cc1cc(Nc2cc(N3CCN(C)CC3)nc(Sc3ccc(NC(=O)C4CC4)cc3)n2)n[nH]1 [Tozasertib] (partner 0.1 µM)", "method_in_brief": "as §1"}, "[2]": {"compound": "C1=CC2=C(C=C(C(=C2N=C1)O)N=NC3=CC4=C(C=C3)C=C(C=C4)S(=O)(=O)O)S(=O)(=O)O + COc1cc2c(Oc3ccc(NC(=O)C4(C(=O)Nc5ccc(F)cc5)CC4)cc3F)ccnc2cc1OCCCN1CCOCC1 [Foretinib] (partner 0.25 µM)", "method_in_brief": "as §1"}},
  "data": [
    {"cell line": "UMC-11", "values": [
      {"measurement": "relative viability", "setting": "AT-7519 + Crizotinib; first compound 0.01 µM", "result": 0.677},
      {"measurement": "relative viability", "setting": "AT-7519 + Crizotinib; first compound 0.03162 µM", "result": 0.539},
      {"measurement": "relative viability", "setting": "AT-7519 + Crizotinib; first compound 0.3162 µM", "result": 0.302},
      {"measurement": "relative viability", "setting": "AT-7519 + Crizotinib; first compound 1 µM", "result": 0.13},
      {"measurement": "relative viability", "setting": "AT-7519 + Bortezomib; first compound 0.01 µM", "result": 1.03},
      {"measurement": "relative viability", "setting": "AT-7519 + Bortezomib; first compound 0.03162 µM", "result": 0.667},
      {"measurement": "relative viability", "setting": "AT-7519 + Bortezomib; first compound 0.3162 µM", "result": 0.427},
      {"measurement": "relative viability", "setting": "AT-7519 + Bortezomib; first compound 1 µM", "result": 0.359},
      {"measurement": "relative viability", "setting": "[1]; first compound 0.08 µM", "result": 0.187},
      {"measurement": "relative viability", "setting": "[1]; first compound 0.253 µM", "result": 0.193},
      {"measurement": "relative viability", "setting": "[1]; first compound 0.8 µM", "result": 0.212},
      {"measurement": "relative viability", "setting": "[1]; first compound 2.53 µM", "result": 0.205},
      {"measurement": "relative viability", "setting": "[1]; first compound 8 µM", "result": 0.179},
      {"measurement": "relative viability", "setting": "[2]; first compound 0.08 µM", "result": 1.13},
      {"measurement": "relative viability", "setting": "[2]; first compound 0.253 µM", "result": 1.04},
      {"measurement": "relative viability", "setting": "[2]; first compound 0.8 µM", "result": 0.938},
      {"measurement": "relative viability", "setting": "[2]; first compound 2.53 µM", "result": 1.05},
      {"measurement": "relative viability", "setting": "[2]; first compound 8 µM", "result": 1.01}
    ]}
  ]
}
